Columns and labels:
[1] = target: T1, Cholecystokinin receptor type A (Homo sapiens, UniProt P32238); format: cell membranes, Membrane; conditions: 1321-n1; also: in other assays of this panel Not Active means under 50% inhibition at 10 µM
T1 sequence (P32238 whole entry): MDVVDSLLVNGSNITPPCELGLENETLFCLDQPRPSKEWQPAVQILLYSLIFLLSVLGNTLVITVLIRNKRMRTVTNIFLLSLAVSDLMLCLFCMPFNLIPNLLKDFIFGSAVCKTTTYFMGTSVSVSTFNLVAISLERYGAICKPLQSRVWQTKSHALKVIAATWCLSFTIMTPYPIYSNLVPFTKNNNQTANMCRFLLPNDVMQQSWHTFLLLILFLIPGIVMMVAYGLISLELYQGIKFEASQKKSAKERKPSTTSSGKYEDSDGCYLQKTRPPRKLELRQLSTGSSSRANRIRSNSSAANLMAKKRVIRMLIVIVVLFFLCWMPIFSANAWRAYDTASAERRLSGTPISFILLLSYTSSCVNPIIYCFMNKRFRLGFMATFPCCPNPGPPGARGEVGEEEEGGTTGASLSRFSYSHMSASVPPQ

[2] = target: Epidermal growth factor receptor (Homo sapiens, UniProt P00533); assay: DRUGMATRIX: Protein Tyrosine Kinase, EGF Receptor enzyme inhibition (substrate: Poly(Glu:Tyr)); format: cell-based, Insect cells; conditions: Not Active = under 50% inhibition at 10 µM
[3] = target: Aldo-keto reductase family 1 member B1 (Rattus norvegicus, UniProt P07943); assay: biochemical; format: tissue-based, Lens of camera-type eye;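 also: inhibition of aldose reductase enzyme activity, measured with DL-glyceraldehyde as the substrate; in other assays of this panel Not Active means under 50% inhibition at 10 µM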
[4] = DRUGMATRIX: Nicotinic Acetylcholine radioligand binding (ligand: [125I] Epibatidine); format: cell membranes, Membrane; conditions: imr-32; Not Active = under 50% inhibition at 10 µM
[5] = target: T2, Alpha-1B adrenergic receptor (Rattus norvegicus, UniProt P15823); assay: DRUGMATRIX: Alpha-1B adrenergic receptor radioligand binding (ligand: prazosin); format: cell membranes, Wistar, Liver, Membrane; conditions: Not Active = under 50% inhibition at 10 µM; for Ki: read-out: Ki
T2 sequence (P15823 whole entry): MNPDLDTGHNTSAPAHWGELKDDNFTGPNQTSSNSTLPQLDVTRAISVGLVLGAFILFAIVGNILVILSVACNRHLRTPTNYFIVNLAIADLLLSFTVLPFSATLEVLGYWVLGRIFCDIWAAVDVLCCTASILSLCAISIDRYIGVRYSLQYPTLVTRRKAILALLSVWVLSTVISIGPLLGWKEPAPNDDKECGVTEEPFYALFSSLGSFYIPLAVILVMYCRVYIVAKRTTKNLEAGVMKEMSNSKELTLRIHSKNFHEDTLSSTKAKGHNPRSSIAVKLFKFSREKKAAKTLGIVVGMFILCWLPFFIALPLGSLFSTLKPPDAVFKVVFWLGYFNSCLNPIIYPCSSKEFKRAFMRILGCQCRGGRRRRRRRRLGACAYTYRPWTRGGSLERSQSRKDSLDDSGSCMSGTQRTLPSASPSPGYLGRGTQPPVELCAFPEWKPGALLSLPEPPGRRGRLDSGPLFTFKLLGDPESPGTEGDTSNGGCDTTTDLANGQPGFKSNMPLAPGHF

[6] = DRUGMATRIX: Phosphodiesterase PDE3 enzyme inhibition (substrate: [3H]cAMP + cAMP); format: tissue-based, Homo sapiens; conditions: platelet; Not Active = under 50% inhibition at 10 µM
[7] = target: T3, Nitric oxide synthase, inducible (Mus musculus, UniProt P29477); set-up: species or system Escherichia coli;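 also: inhibition of iNOS enzyme activity measured with L-arginine as substrate; in other assays of this panel Not Active means under 50% inhibition at 10 µM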
T3 sequence (P29477 whole entry): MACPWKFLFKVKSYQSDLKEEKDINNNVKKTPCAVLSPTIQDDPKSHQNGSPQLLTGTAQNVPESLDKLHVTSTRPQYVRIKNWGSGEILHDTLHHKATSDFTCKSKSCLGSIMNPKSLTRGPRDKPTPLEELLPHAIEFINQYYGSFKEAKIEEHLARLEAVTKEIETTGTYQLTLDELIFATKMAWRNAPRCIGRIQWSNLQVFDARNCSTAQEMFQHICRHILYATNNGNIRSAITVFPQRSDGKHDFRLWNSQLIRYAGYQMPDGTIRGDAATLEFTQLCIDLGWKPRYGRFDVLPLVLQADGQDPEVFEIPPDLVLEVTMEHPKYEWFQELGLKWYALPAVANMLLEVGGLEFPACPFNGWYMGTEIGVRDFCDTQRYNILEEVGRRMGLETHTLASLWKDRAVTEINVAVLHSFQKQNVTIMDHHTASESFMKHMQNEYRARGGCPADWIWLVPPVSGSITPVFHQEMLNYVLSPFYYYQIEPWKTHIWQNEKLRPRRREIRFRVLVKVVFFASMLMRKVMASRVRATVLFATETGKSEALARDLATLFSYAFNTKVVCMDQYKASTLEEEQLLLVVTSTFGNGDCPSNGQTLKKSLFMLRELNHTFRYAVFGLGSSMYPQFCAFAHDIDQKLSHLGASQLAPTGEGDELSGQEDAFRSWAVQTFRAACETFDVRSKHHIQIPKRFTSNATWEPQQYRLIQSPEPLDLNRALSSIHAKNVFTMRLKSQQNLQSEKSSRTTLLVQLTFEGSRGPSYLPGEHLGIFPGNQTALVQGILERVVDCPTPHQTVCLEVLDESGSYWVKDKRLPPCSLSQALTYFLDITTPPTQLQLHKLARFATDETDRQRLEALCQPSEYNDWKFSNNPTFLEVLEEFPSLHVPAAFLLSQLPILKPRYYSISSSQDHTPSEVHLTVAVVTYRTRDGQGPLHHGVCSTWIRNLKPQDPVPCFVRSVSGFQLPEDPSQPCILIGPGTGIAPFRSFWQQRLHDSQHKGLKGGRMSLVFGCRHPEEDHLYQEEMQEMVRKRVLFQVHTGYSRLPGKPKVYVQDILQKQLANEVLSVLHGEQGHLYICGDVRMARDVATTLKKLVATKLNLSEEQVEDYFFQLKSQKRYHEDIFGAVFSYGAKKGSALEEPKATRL

Chain of Epidermal growth factor receptor (P00533 whole entry): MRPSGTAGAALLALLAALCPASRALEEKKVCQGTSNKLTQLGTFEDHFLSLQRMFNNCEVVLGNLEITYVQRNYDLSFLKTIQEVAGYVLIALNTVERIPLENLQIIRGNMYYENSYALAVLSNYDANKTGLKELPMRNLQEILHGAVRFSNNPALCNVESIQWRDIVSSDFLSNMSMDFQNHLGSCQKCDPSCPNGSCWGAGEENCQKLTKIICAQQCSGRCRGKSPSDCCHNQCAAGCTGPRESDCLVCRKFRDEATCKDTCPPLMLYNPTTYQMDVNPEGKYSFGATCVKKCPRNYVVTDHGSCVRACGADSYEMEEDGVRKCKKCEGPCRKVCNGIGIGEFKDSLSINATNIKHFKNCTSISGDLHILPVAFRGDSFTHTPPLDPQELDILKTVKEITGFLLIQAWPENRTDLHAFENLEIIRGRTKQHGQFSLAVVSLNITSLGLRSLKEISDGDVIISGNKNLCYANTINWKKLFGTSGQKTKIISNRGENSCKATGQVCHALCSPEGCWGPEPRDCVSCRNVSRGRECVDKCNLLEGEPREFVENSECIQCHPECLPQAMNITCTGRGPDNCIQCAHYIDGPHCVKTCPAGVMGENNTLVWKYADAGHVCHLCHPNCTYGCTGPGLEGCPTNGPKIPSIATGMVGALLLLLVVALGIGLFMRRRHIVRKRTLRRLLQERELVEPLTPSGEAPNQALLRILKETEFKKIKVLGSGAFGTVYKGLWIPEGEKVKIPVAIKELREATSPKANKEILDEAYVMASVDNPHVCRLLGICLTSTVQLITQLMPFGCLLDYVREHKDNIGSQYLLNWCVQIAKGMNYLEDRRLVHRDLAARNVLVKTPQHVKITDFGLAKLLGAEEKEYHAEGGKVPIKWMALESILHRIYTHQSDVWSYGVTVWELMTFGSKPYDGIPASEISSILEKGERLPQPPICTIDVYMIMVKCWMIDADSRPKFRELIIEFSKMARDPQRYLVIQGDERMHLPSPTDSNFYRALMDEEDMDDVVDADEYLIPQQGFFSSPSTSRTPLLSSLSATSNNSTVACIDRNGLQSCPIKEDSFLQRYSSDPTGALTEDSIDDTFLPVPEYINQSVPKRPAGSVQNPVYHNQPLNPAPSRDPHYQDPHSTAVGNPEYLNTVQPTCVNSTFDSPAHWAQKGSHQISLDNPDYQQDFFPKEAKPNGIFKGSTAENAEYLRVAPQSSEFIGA

CN1C[C@H](C(=O)N[C@]2(C)O[C@@]3(O)[C@@H]4CCCN4C(=O)[C@H](Cc4ccccc4)N3C2=O)C[C@@H]2c3cccc4[nH]cc(c34)C[C@H]21 [DIHYDROERGOTAMINE]
4.48 nM: Ki [5]
8.09 nM: IC50 ([5]; read-out: IC50)
Not Active: IC50 [1] | IC50 ([2]; insect cells) | IC50 [3] | IC50 [4] | Ki [4] | IC50 [6] | Ki [6] | IC50 [7]

Cc1c(N(C)CS(=O)(=O)[O-])c(=O)n(-c2ccccc2)n1C.[Na+] [DIPYRONE SODIUM]
Not Active: IC50 [1] | IC50 ([2]; insect cells) | IC50 [3] | IC50 [4] | Ki [4] | IC50 [5] | IC50 [6] | Ki [6] | IC50 [7]

CC(CCc1ccc(O)cc1)NCCc1ccc(O)c(O)c1 (stereo not drawn) [DOBUTAMINE]
Not Active: IC50 [1] | IC50 [3] | IC50 [4] | Ki [4] | IC50 [6] | Ki [6] | IC50 [7]
5550 nM: IC50 ([2]; read-out: IC50)
186 nM: Ki [5]
336 nM: IC50 ([5]; read-out: IC50)

CCn1cc(C(=O)O)c(=O)c2cc(F)c(N3CCNCC3)nc21 [ENOXACIN]
Not Active: IC50 [1] | IC50 ([2]; insect cells) | IC50 [3] | IC50 [4] | Ki [4] | IC50 [5] | IC50 [6] | Ki [6] | IC50 [7]

CCC(=O)O[C@H]1[C@H](O[C@@H]2[C@@H](C)[C@H](O[C@H]3C[C@@](C)(OC)[C@@H](O)[C@H](C)O3)[C@@H](C)C(=O)O[C@H](CC)[C@@](C)(O)[C@H](O)[C@@H](C)C(=O)[C@H](C)C[C@@]2(C)O)O[C@H](C)C[C@@H]1N(C)C [ERYTHROMYCIN PROPIONATE]
Not Active: IC50 [1] | IC50 ([2]; insect cells) | IC50 [3] | IC50 [4] | Ki [4] | IC50 [5] | IC50 [6] | Ki [6] | IC50 [7]

C=C(CC)C(=O)c1ccc(OCC(=O)O)c(Cl)c1Cl [ETHACRYNIC ACID]
1150 nM: IC50 ([3]; read-out: IC50)
Not Active: IC50 [1] | IC50 ([2]; insect cells) | IC50 [4] | Ki [4] | IC50 [5] | IC50 [6] | Ki [6] | IC50 [7]

C#C[C@]1(O)CC[C@H]2[C@@H]3CCc4cc(O)ccc4[C@H]3CC[C@@]21C [ETHINYL ESTRADIOL]
Not Active: IC50 [1] | IC50 ([2]; insect cells) | IC50 [3] | IC50 [4] | Ki [4] | IC50 [5] | IC50 [6] | Ki [6] | IC50 [7]

OCCO [ETHYLENE GLYCOL]
Not Active: IC50 [1] | IC50 ([2]; insect cells) | IC50 [3] | IC50 [4] | Ki [4] | IC50 [5] | IC50 [6] | Ki [6] | IC50 [7]

CC(=O)OCC(CCn1cnc2cnc(N)nc21)COC(C)=O [FAMCICLOVIR]
Not Active: IC50 [1] | IC50 ([2]; insect cells) | IC50 [3] | IC50 [4] | Ki [4] | IC50 [5] | IC50 [6] | Ki [6] | IC50 [7]

Source: ChEMBL document CHEMBL1909046, “DrugMatrix in vitro pharmacology data”
